Key:
[1] = molecular target: T1, Trp-p8 (Homo sapiens, UniProt Q7Z2W7, T58I); assay: ATP viability assay with CHO/Trp-p8 cells at 37° C.; assay type: cell-based; conditions: ATP viability assay
T1 construct: expressed in transfected cells; host or cells: CHO (Chinese Hamster Ovary) cells
Text: (§1) Human Trp-p8 transfected CHO cells (referred to herein as CHO/Trp-p8) were generated for use in experiments of the present invention. Expression of Trp-p8 polypeptide in this transfectant and the absence of any endogenous expression in the non-transfected CHO was confirmed by western blot and immunofluorescence using a Trp-p8 specific antibody (GS2.20) as well as the calcium flux assay with Icilin (1-[2-hydroxyphenyl]-4-[3-nitrophenyl]-1,2,3,6-tetrahydropyrimidine-2-one) and menthol (2-isopropyl-5-methyl-cyclohexanol). Non-transfected CHO cells were used to establish the specificity of the effects of the compounds observed with CHO/Trp-p8.
This Example discloses an ATP viability assay suitable for screening for effective Trp-p8 agonists. The ATP viability assay described herein employs CHO cells expressing an exogenous Trp-p8 cDNA. This example further establishes that Trp-p8 agonists of the present invention are effective in decreasing the viability of Trp-p8 expressing cells.
The concentration of intracellular ATP declines very rapidly when metabolically active cells undergo necrosis and/or apoptosis. The ATP concentration and consequently the relative cell viability can be measured by established methods using commercially available reagents. In the agonist screening methodology disclosed herein, a compound that specifically decreases the viability of CHO/Trp-p8 cells is referred to as an agonist.
(§2) As a primary screen for efficacy and specificity for agonists, both the non-transfected CHO and CHO/Trp-p8 cells were exposed to 1 or 10 μM of test compounds in 1% dimethylsulfoxide (DMSO) or 1% DMSO (control) in a 96-well black walled, black-bottomed, cell-culture treated plate. DMSO was the solvent for all of the compounds tested. After 24-26 hours at 37° C., the cells were lysed and ATP concentration determined via a chemiluminescence assay using a commercially available reagent kit—Cell Titer-Glo (Promega; Madison, Wis.). […] (EC50 is defined herein as the agonist concentration at which there is a 50% reduction in relative cell viability).

[2] = system: Parent CHO; assay: ATP viability assay with non-transfected (parent) CHO cells; assay type: cell-based, Chinese Hamster; conditions: Cricetulus griseus
Text: as §1, §2

[3] = system: CHO/Trp-p8 xenograft; assay: CHO/Trp-p8 murine tumor xenograft model; assay type: in vivo, mice
Description: FIGS. 6A-6B are graphs depicting results from an exemplary animal model suitable for testing and characterizing small-molecule Trp-p8 modulators of the present invention. Mice were injected subcutaneously with CHO/Trp-p8 cells, resulting in the formation of solid tumors. The length (longest dimension) and width (dimension perpendicular to and in the same plane as length) of each tumor was measured with Vernier calipers, and the tumor volume was approximated by a formula for the volume of an ellipsoid: 0.52*L*W^2. When the average tumor volume reached approximately 100 mm^3, the mice were randomized into groups. In FIG. 6A, the mice were administered a single dose of either a study compound as an aqueous formulation, or vehicle alone, by oral gavage. […] Tumors were then subsequently measured on the indicated days. […]
Mice were injected subcutaneously with CHO/Trp-p8 cells, resulting in the formation of solid tumors. The length (L; longest dimension) and width (W; dimension perpendicular to and in the same plane as length) of each tumor was measured with calipers, and the tumor volume was approximated by a formula for the volume of an ellipsoid: 0.52*L*W^2. […] Tumors were subsequently measured on the indicated days. […]
Mice were injected subcutaneously with CHO/Trp-p8 cells, resulting in the formation of solid tumors. […] Tumors were then subsequently measured on the indicated days. […]

[4] = system: CHO-K1 cells lacking Trp-p8; assay: Matched CHO (Trp-p8-) murine tumor xenograft model (CHO-K1 cells lacking Trp-p8); assay type: in vivo, mice; conditions: 100 mg/kg, single oral dose
Description: Mice were injected subcutaneously with CHO-K1 cells lacking Trp-p8, resulting in the formation of solid tumors. The length (L; longest dimension) and width (W; dimension perpendicular to and in the same plane as length) of each tumor was measured with Vernier calipers, and the tumor volume was approximated by a formula for the volume of an ellipsoid: 0.52*L*W^2. When the average tumor volume reached approximately 50 mm^3, the mice were randomized into groups, and administered either a single dose of the compound as an aqueous formulation, or vehicle, by oral gavage. Tumors were then subsequently measured on the indicated days. The data is presented as mean tumor volumes±standard error of the mean.

[5] = system: LuCaP; assay: LuCaP murine tumor xenograft model expressing Trp-p8; assay type: in vivo, mice; conditions: intraperitoneal injection, once a day for 5 days; slower-growing tumor
Description: The LuCaP tumor model was obtained from Robert L. Vassella, Ph.D., Professor of Urology in the University of Washington's School of Medicine. The length (L; longest dimension) and width (W; dimension perpendicular to and in the same plane as length) of each tumor was measured with Vernier calipers, and the tumor volume was approximated by a formula for the volume of an ellipsoid: 0.52*L*W^2. When the average tumor volume reached approximately 150 mm^3, the mice were administered the compound, as an aqueous formulation, by intraperitoneal injection, once a day for 5 days. Tumors were then subsequently measured on the indicated days. The data is presented as mean tumor volumes±standard error of the mean.
Human prostate cancer xenografts expressing Trp-p8 (LuCaP, from Dr. Robert Vessella's lab in University of Washington—as assessed by in situ hybridization, quantitative polymerase chain reaction, and immunohistochemistry using a protein specific rabbit polyclonal antibody, T-904), as well as cell lines engineered to express Trp-p8, including CHO (Chinese Hamster Ovary) and EL-4 (Mouse Thymoma) cell lines, were used to establish tumor models in mice. Trp-p8 expression in the transfectants was confirmed by western blots and immunofluorescence using a Trp-p8 specific antibody (GS 2.20) as well as by response to known agonists in a calcium influx functional assay. […]

[6] = Plasma concentrations in rats after a single oral dose; assay type: in vivo; conditions: rodents (FIG. 9A: rats), aqueous formulation, oral gavage
Text: (§3) FIGS. 9A and 9B are graphs depicting the plasma concentrations of several compounds, as a function of time and dose, in rats (FIG. 9A), and dogs (FIG. 9B) after a single oral dose. […] Blood was collected at the indicated time points, and analyzed for drug levels.

[7] = Plasma concentrations in dogs after a single oral dose; assay type: in vivo; conditions: Beagle dogs (FIG. 9B), aqueous formulation, oral gavage
Text: as §3

[8] = Sustained plasma levels after oral dosing (half-life, species not stated); assay type: in vivo; conditions: oral administration, read-out: t½ (sustained plasma levels) (converted)
Text: as §3

T1 sequence (Q7Z2W7 whole entry T58I): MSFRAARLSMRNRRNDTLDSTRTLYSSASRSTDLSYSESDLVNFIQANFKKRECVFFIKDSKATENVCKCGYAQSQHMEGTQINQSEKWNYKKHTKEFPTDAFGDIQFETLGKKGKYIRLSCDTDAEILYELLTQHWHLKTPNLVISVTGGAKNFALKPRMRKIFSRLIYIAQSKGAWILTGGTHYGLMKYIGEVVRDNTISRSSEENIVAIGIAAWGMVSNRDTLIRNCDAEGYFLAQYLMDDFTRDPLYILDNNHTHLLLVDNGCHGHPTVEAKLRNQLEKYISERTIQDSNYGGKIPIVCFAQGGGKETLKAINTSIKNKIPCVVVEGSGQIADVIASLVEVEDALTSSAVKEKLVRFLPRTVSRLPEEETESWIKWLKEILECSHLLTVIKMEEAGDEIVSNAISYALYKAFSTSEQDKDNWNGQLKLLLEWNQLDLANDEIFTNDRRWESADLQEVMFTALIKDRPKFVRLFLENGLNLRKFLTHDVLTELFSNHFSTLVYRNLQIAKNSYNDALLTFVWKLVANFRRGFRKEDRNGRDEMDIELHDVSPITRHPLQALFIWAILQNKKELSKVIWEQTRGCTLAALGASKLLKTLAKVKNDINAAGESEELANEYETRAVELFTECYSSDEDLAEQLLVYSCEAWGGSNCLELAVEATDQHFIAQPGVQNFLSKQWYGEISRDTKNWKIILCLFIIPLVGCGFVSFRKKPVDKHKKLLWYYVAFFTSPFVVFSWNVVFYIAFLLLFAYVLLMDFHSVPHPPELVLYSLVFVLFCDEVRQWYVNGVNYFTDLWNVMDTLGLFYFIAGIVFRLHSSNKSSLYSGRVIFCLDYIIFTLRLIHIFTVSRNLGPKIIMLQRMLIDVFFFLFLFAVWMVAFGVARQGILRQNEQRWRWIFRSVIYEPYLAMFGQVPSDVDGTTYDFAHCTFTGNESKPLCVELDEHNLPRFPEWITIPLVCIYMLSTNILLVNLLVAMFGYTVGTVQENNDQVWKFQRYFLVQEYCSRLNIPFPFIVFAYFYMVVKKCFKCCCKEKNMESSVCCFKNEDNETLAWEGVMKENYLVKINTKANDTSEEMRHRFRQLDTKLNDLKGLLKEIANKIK

In the case of `COc1ccc2c(c1)n(CCN)c(=O)n2C(=O)[C@@H]1C[C@H](C)CC[C@H]1C(C)C` [Compound I], the “times more potent than Compounds II, III, and IV” value [1] is reported as “approximately 3 times”, the EC50 ([1]; read-out: CHO/Trp-p8 EC50) is reported as 3 nM and the EC50 [2] is reported as > 10000 nM. The “effect of treatment on tumor growth, CHO/Trp-p8 model” value ([3]; fast-growing tumor) was “attenuated growth, but did not cause regression”, the “efficacy in the CHO/Trp-p8 xenograft model” value ([3]; single oral dose of 10 mg/kg) was “significant efficacy” and the “efficacy in the matched CHO (Trp-p8-) model” value [4] was “did not show significant efficacy”. For the same compound, the “effect of treatment on tumor growth, LuCaP model” value [5] was “statistically significant regression, as well as growth-inhibition”, the “exposure after a single oral administration” value [6] was “prolonged exposure” and the “exposure after a single oral administration” value [7] was “prolonged exposure”. It also gave a half-life [8] of ~9 h.
